Experiments:
Assay in all cases: drug sensitivity score (DSS) from 5-point dose-response viability curve (DSS (area-under-curve based score)); higher = more sensitive (stronger growth inhibition or killing); extreme values may be limits of the assay
Details in all cases: exposure time: 72 h; concentration range: 5 concentrations over 10,000-fold range
[1] = system: CAOV3
In short: (§1)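 Viability of ovarian cancer and normal ovarian cell lines was read by CellTiter-Glo luminescence after 3 days at 37°C and 5% CO2 in 384-well plates holding 1,500 cells per well. Drugs had been dispensed in DMSO or water with an Echo 550 at five concentrations over a 10,000-fold range. Using Breeze software, a drug sensitivity score was assigned per cell line and drug, higher scores meaning more sensitive, and zero means no response.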

[2] = system: COV318
In short: as §1

[3] = system: COV362
In short: as §1

[4] = system: HOSE1C
In short: as §1

[5] = system: HOSE2C
In short: as §1

[6] = system: JHOS2
In short: as §1

[7] = system: Kuramochi
In short: as §1

[8] = system: OV90
In short: as §1

[9] = system: OVCAR4
In short: as §1

[10] = system: OVCAR5
In short: as §1

[11] = system: OVCAR8
In short: as §1

[12] = system: Ovsaho
In short: as §1

Row | Structure (SMILES) | drug sensitivity score [1] | drug sensitivity score [2] | drug sensitivity score [3] | drug sensitivity score [4] | drug sensitivity score [5] | drug sensitivity score [6] | drug sensitivity score [7] | drug sensitivity score [8] | drug sensitivity score [9] | drug sensitivity score [10] | drug sensitivity score [11] | drug sensitivity score [12]
1 | CN1C(=O)N[C@H](Cc2c[nH]c3c(Cl)cccc23)C1=O [Necrostatin 2] | 0 | 0 | 0 | 0 | 0 | 0 | 0 | 0 | 0 | 0 | 0 | 0
2 | O=c1ncn2nc(Sc3ccc(F)cc3F)ccc2c1-c1c(Cl)cccc1Cl [Neflamapimod] | 0 | 0.8 | 0 | 0.1 | 0 | 0 | 2 | 0.4 | 0.4 | 0.8 | 0.9 | 0
3 | COc1nc(N)nc2c1ncn2[C@@H]1O[C@H](CO)[C@@H](O)[C@@H]1O [Nelarabine] | 0 | 0 | 0 | 0 | 0 | 0 | 0 | 1.7 | 0 | 0 | 0 | 0
4 | CCOc1cc2ncc(C#N)c(Nc3ccc(OCc4ccccn4)c(Cl)c3)c2cc1NC(=O)/C=C/CN(C)C [Neratinib] | 5.3 | 0 | 0 | 0 | 1 | 1.4 | 0.4 | 0 | 0.6 | 2.9 | 4.8 | 0
5 | Cc1cn(-c2cc(NC(=O)c3ccc(C)c(Nc4nccc(-c5cccnc5)n4)c3)cc(C(F)(F)F)c2)cn1 [Nilotinib] | 0 | 0.1 | 1.2 | 0 | 0 | 0 | 0 | 0 | 0.9 | 2 | 3.4 | 0
6 | CC1(C)NC(=O)N(c2ccc([N+](=O)[O-])c(C(F)(F)F)c2)C1=O [Nilutamide] | 0 | 0 | 0 | 0.8 | 0 | 0.6 | 1.6 | 0 | 0 | 0.1 | 0 | 0
7 | COC(=O)c1ccc2c(c1)NC(=O)/C2=C(\Nc1ccc(N(C)C(=O)CN2CCN(C)CC2)cc1)c1ccccc1 [Nintedanib] | 0.2 | 2.5 | 1.8 | 3.1 | 6.3 | 0.6 | 4.2 | 3.5 | 3.6 | 7.9 | 3.2 | 5.5
8 | NC(=O)c1cccc2cn(-c3ccc([C@@H]4CCCNC4)cc3)nc12 [Niraparib] | 3.4 | 1.1 | 0 | 3.9 | 1.9 | 1.5 | 1 | 1.7 | 0 | 2.6 | 4.1 | 2.1
9 | CC(=O)c1cnc2ccc(-c3cc(Cl)c(O)c(Cl)c3)nc2c1N[C@H]1CC[C@H](CN(C)C)CC1 [OTS167] | 13.2 | 15.1 | 5.4 | 19.8 | 12.4 | 13.4 | 10.6 | 7.5 | 7.5 | 11.8 | 13.6 | 9.1
10 | O=C(c1cc(Cc2n[nH]c(=O)c3ccccc23)ccc1F)N1CCN(C(=O)C2CC2)CC1 [Olaparib] | 4.7 | 2.9 | 0.3 | 0.8 | 2.5 | 4.6 | 3.4 | 5.4 | 1.9 | 2 | 4.9 | 2.1
11 | C=CC(=O)Nc1cccc(Oc2nc(Nc3ccc(N4CCN(C)CC4)cc3)nc3ccsc23)c1 [Olmutinib] | 0.3 | 0.3 | 0.6 | 0 | 0 | 0 | 0.7 | 0 | 0.1 | 0.7 | 0 | 0.5
12 | COC(=O)C[C@](O)(CCCC(C)(C)O)C(=O)O[C@@H]1C(OC)=C[C@]23CCCN2CCc2cc4c(cc2[C@H]13)OCO4 [Omacetaxine] | 28.7 | 17.4 | 19.2 | 31 | 18.6 | 19.3 | 18.3 | 23.3 | 20.9 | 23.4 | 24.1 | 19.5
13 | CC1(C)CC[C@]2(NC(=O)C(C)(F)F)CC[C@]3(C)[C@H](C(=O)C=C4[C@@]5(C)C=C(C#N)C(=O)C(C)(C)[C@@H]5CC[C@]43C)[C@@H]2C1 [Omaveloxolone] | 17.4 | 10.5 | 9.2 | 16.5 | 16.3 | 13.3 | 14.3 | 18.8 | 18.6 | 13.7 | 18.9 | 19.6
14 | COc1ncc(-c2ccc3nccc(-c4ccnnc4)c3c2)cc1NS(=O)(=O)c1ccc(F)cc1F [Omipalisib] | 16.9 | 10.7 | 6.7 | 16.6 | 18.1 | 10.1 | 16.2 | 8.6 | 12.7 | 18.9 | 13.3 | 10.4
15 | CC(C)c1cc(C(=O)N2Cc3ccc(CN4CCN(C)CC4)cc3C2)c(O)cc1O [Onalespib] | 11.6 | 5 | 7.7 | 9.2 | 11.7 | 12.8 | 6.6 | 14.6 | 6.7 | 10.6 | 16.4 | 3.1

Source: the supplement of paper PMC11616607
